Assay results as given in ChEMBL document CHEMBL1201862, “PubChem BioAssay data set” (2004).
Values joined by “and” are separate entries in the source; they are usually repeats but may differ in a detail not shown here. Equal values may be shown once.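 Step 1: Grow cells in 96-well plates. Step 2: Expose to compound for 48 hours at 5 concentrations. Step 3: Interpolate endpoints linearly; if unreached, use highest concentration. GI50 marks 50% less growth.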 Active and inactive are the calls of the source. No stated cut-off is given here; in the data, active = GI50 up to about 1.1 µM and inactive = higher.

Columns and labels:
Test in all cases: DTP human tumour cell line panel, 48 h
ACHN = test system: ACHN
DU-145 = test system: DU-145
HCC 2998 = test system: HCC 2998
Hs-578T = test system: Hs-578T
M14 = test system: M14
MCF7 = test system: MCF7
MDA-MB-231 = test system: MDA-MB-231
MDA-N = test system: MDA-N
MOLT-4 = test system: MOLT-4
NCI-H460 = test system: NCI-H460
NCI-H522 = test system: NCI-H522
OVCAR-4 = test system: OVCAR-4
OVCAR-5 = test system: OVCAR-5
RXF 393 = test system: RXF 393
SF-268 = test system: SF-268
SK-MEL-2 = test system: SK-MEL-2
SK-MEL-5 = test system: SK-MEL-5
SN12C = test system: SN12C
SR = test system: SR
U-251 = test system: U-251

SMILES	GI50 (ACHN)	GI50 (DU-145)	GI50 (HCC 2998)	GI50 (Hs-578T)	GI50 (M14)	GI50 (MCF7)	GI50 (MDA-MB-231)	GI50 (MDA-N)	GI50 (MOLT-4)	GI50 (NCI-H460)	GI50 (NCI-H522)	GI50 (OVCAR-4)	GI50 (OVCAR-5)	GI50 (RXF 393)	GI50 (SF-268)	GI50 (SK-MEL-2)	GI50 (SK-MEL-5)	GI50 (SN12C)	GI50 (SR)	GI50 (U-251)
NC(Cc1ccc(N(CCCl)CCCl)cc1)C(=O)NC(CCC(=O)O)C(=O)O (stereo not given)	> 100 µM (inactive)	> 100 µM (inactive)	> 100 µM (inactive)	> 100 µM (inactive)	> 100 µM (inactive)	> 100 µM (inactive)	> 100 µM (inactive)	> 100 µM (inactive)	> 100 µM (inactive)	> 100 µM (inactive)	> 100 µM (inactive)	> 100 µM (inactive)	> 100 µM (inactive)	> 100 µM (inactive)	> 100 µM (inactive)	> 100 µM (inactive)	> 100 µM (inactive)	> 100 µM (inactive)	38 µM (inactive) and 60.4 µM (inactive)	> 100 µM (inactive)
CC(=O)c1cccc(NC2C(N)C(NC(=O)N(C)C)(C(C)O)C(C)(O)C2(O)COC(=O)c2c(C)cccc2O)c1 (stereo not given)	< 0.001 µM (active)	< 0.001 µM (active)	< 0.001 µM (active)	< 0.001 µM (active)	0.0118 µM (active)	< 0.001 µM (active)	0.00187 µM (active)	< 0.001 µM (active)	< 0.001 µM (active)	< 0.001 µM (active)	0.01 µM (active)	< 0.001 µM (active)	< 0.001 µM (active)	< 0.001 µM (active)	0.0263 µM (active)	0.01 µM (active)	< 0.001 µM (active)	< 0.001 µM (active)	< 0.001 µM (active)	< 0.001 µM (active)
C=CCC(CCC(C)=O)(C(=O)OCC)C(=O)OCC	> 100 µM (inactive)	> 100 µM (inactive)	> 100 µM (inactive)	> 100 µM (inactive)	> 100 µM (inactive)	> 100 µM (inactive)	> 100 µM (inactive)	> 100 µM (inactive)	> 100 µM (inactive)	> 100 µM (inactive)	> 100 µM (inactive)	> 100 µM (inactive)	> 100 µM (inactive)	> 100 µM (inactive)	> 100 µM (inactive)	> 100 µM (inactive)	> 100 µM (inactive)	> 100 µM (inactive)	> 100 µM (inactive)	> 100 µM (inactive)
O=C(/C=C/C(=O)N1CCCC1)N1CCCC1	> 100 µM (inactive)	> 100 µM (inactive)	> 100 µM (inactive)	> 100 µM (inactive)	> 100 µM (inactive)	> 100 µM (inactive)	> 100 µM (inactive)	> 100 µM (inactive)	> 100 µM (inactive)	> 100 µM (inactive)	> 100 µM (inactive)	> 100 µM (inactive)	> 100 µM (inactive)	> 100 µM (inactive)	> 100 µM (inactive)	> 100 µM (inactive)	> 100 µM (inactive)	> 100 µM (inactive)	> 100 µM (inactive)	> 100 µM (inactive)
COc1cc2[nH]c(=O)c3cc(-c4ccccc4)cc4c(Cl)nc(c1OC)c2c43	15.6 µM (inactive)	23.6 µM (inactive)	23.6 µM (inactive)	> 100 µM (inactive)	19.4 µM (inactive)	2.36 µM (inactive)	3.64 µM (inactive)	3.86 µM (inactive)	4.63 µM (inactive)	21 µM (inactive)	3.77 µM (inactive)	9.27 µM (inactive)	49.4 µM (inactive)	23.3 µM (inactive)	16.1 µM (inactive)	15.1 µM (inactive)	12.5 µM (inactive)	11.7 µM (inactive)	9.89 µM (inactive)	16.4 µM (inactive)
COC(=O)[C@]12CCC(C)(C)C[C@H]1C1=CC[C@@H]3[C@@]4(C)CC[C@H](OC5OC(CO)C(O)C(O)C5OC5OC(CO)C(O)C(O)C5O)C(C)(C)[C@@H]4CC[C@@]3(C)[C@]1(C)CC2 (stereo not given in full)	7.55 µM (inactive)	12 µM (inactive)	14.8 µM (inactive)	22.5 µM (inactive)	3.91 µM (inactive)	12 µM (inactive)	2.65 µM (inactive)	5.43 µM (inactive)	17.5 µM (inactive)	14.5 µM (inactive)	3.1 µM (inactive)	4.43 µM (inactive)	16.6 µM (inactive)	5.75 µM (inactive)	13.7 µM (inactive)	10.7 µM (inactive)	15.8 µM (inactive)	4.62 µM (inactive)	7.85 µM (inactive)	13.2 µM (inactive)
